“Also recorded” adds a separate entry of the source. Read-outs that look alike come from different tables or passages of the source. Positions of bridges follow the written chain, without caps; N, C: chain ends. Non-standard residues stand in square brackets, D forms with d. Residues, ends and D or L forms follow the SMILES beside them. Phe(3-Cl) = N[C@@H](Cc1cccc(Cl)c1)C(=O)O; Phe(4-Cl) = N[C@@H](Cc1ccc(Cl)cc1)C(=O)O; Phe(3-F) = N[C@@H](Cc1cccc(F)c1)C(=O)O; Cha = N[C@@H](CC1CCCCC1)C(=O)O; AEEA = NCCOCCOCC(=O)O; Dap = NC[CH](N)C(=O)O; Aoc = NCCCCCCCC(=O)O
What was measured:
[1] = target: S. aureus AgrC in group-I (Staphylococcus aureus, UniProt A0A0H2XKA3); assay: AgrC inhibition YFP reporter gene assay, S. aureus group-I (AH1677); type: cell-based; conditions: for AgrC activity, preliminary screening: 10 μM where stated, YFP fluorescence relative to 1% DMSO control
Experimental: (§1) Reporter Gene Assays: The peptidomimetics were assayed for AgrC I-IV inhibition using the four YFP reporter strains listed in Table 1. Peptide stock solutions were diluted with DMSO in serial dilutions, and 2 μL of the diluted solution was added to each of the wells in a black, clear-bottom 96-well microtiter plate (Costar). An overnight culture of S. aureus YFP strain (Table 1) was diluted 1:50 with fresh BHI (pH 7.35). A […] of diluted culture was added to each well of the microtiter plate containing peptide (resulting in a 1% DMSO solution). Plates were incubated at 37° C. with shaking at 200 rpm for 24 h. Fluorescence (excitation 500 nm/emission 540 nm) and optical density at 600 nm (OD600) of each well were then recorded using a BioTek Synergy 2 plate reader. […] Full dose response curves are provided in Figures S3A-D, S4A-D, S5A-D, S6A-D and S7A-F.
(§2) A first compound library of AIP mimetics was screened for AgrC modulatory activity in all four groups of S. aureus using strains containing yfp reporter. These strains are summarized in Table 1, and include the multidrug-resistant strain USA300 LAC.[17] In these S. aureus reporters, binding of the native AIP to AgrC activates YFP production and can be measured using fluorescence. Thus, compounds capable of inhibiting native AIP binding produce a reduction in fluorescence. Preliminary compound screening was performed at 10 μM in each strain; the full results of preliminary screening are shown in FIGS. 4A-4D. Key findings from these initial screens are summarized here. To simplify the discussion, the full library will be described as three smaller sub-libraries. In the first sub-library (termed nxLX), there is a linker with n=x methylenes, residue 3 is Leu, and residue 4 (X) is Leu, Ile, or Phe (FIG. 2A). The second and third sub-libraries (nxIX and nxFX) are identical to the first sub-library except that there is an Ile or Phe at residue 3, respectively.

[2] = target: S. aureus AgrC in group-II (Staphylococcus aureus, UniProt O33587); assay: AgrC inhibition YFP reporter gene assay, S. aureus group-II (AH430); type: cell-based; conditions: for AgrC activity, preliminary screening: 10 μM where stated, YFP fluorescence relative to 1% DMSO control
Experimental: as §1, §2

[3] = target: S. aureus AgrC in group-III (Staphylococcus aureus, UniProt O33590); assay: AgrC inhibition YFP reporter gene assay, S. aureus group-III (AH1747); type: cell-based; conditions: for AgrC activity, preliminary screening: 10 μM where stated, YFP fluorescence relative to 1% DMSO control
Experimental: as §1, §2

[4] = target: S. aureus AgrC in group-IV (Staphylococcus aureus, UniProt Q309Z2); assay: AgrC inhibition YFP reporter gene assay, S. aureus group-IV (AH1872); type: cell-based; conditions: for AgrC activity, preliminary screening: 10 μM where stated, YFP fluorescence relative to 1% DMSO control
Experimental: as §1, §2

[5] = Solubility in water; type: physicochemical
[6] = read-out: IC50 Group-I, Table 3, against S. aureus AgrC
[7] = read-out: IC50 Group-II, Table 3, against S. aureus AgrC
[8] = read-out: IC50 Group-III, Table 3, against S. aureus AgrC
[9] = read-out: IC50 Group-IV, Table 3, against S. aureus AgrC
[10] = read-out: Group-I IC50, 95% CI, YFP reporter strain, 24 h, value (95% CI)
[11] = read-out: Group-II IC50, 95% CI, YFP reporter strain, 24 h, value (95% CI)
[12] = read-out: Group-III IC50, 95% CI, YFP reporter strain, 24 h, value (95% CI)
[13] = read-out: Group-IV IC50, 95% CI, YFP reporter strain, 24 h, value (95% CI)

SMILES | IC50 [1, 6] [nM] | IC50 [2, 7] [nM] | IC50 [3, 8] [nM] | IC50 [4, 9] [nM] | AgrC activity, preliminary screening ([1]; group-I) | IC50 [1, 10] [nM] | AgrC activity, preliminary screening ([2]; group-II) | IC50 [2, 11] [nM] | AgrC activity, preliminary screening ([3]; group-III) | IC50 [3, 12] [nM] | AgrC activity, preliminary screening ([4]; group-IV) | water solubility [5] | IC50 [4, 13] [nM] | also measured
CC(=O)N[C@H]1CSC(=O)[C@H](Cc2cccc(F)c2)NC(=O)[C@H](CC2CCCCC2)NC(=O)CCCCCCCNC1=O [n7Cha3fF] (Ac-C[Aoc][Cha][Phe(3-F)]; thioester 1-C) | 429 | 2340 | 19 | 1160 |  |  |  |  |  |  |  |  |  | 
CC(=O)NC1CNC(=O)C(Cc2ccccc2)NC(=O)C(Cc2ccccc2)NC(=O)CCCCCCCNC1=O (stereo not shown) [n7FF amide] (Ac-[Dap][Aoc]FF; lactam 1-C; configuration not given here) |  |  |  |  | far less active | 3940 | minimal levels | 2200 | minimal levels | 573 | virtually no inhibition | markedly more soluble in water than their parent thiolactones |  | 
CC(=O)N[C@H]1CSC(=O)[C@H](Cc2ccccc2)NC(=O)[C@H](Cc2ccccc2)NC(=O)CCCCCCCNC1=O [n7FF] (Ac-C[Aoc]FF; thioester 1-C) |  |  |  |  | minimal levels | 340 | minimal levels | 495 | minimal levels | 34.8 | minimal levels | relatively low water solubilities; also recorded: less soluble than AIP-III D4A in water | 985 | IC50 relative to that of t-AIP-II ([1]; group-I): 3-7 fold; IC50 relative to that of t-AIP-II ([2]; group-II): 3-7 fold; IC50 relative to that of t-AIP-II ([3]; group-III): 3-7 fold; IC50 relative to that of t-AIP-II ([4]; group-IV): 3-7 fold
CC(=O)N[C@H]1CSC(=O)[C@H](Cc2cccc(F)c2)NC(=O)[C@H](CC2CCCCC2)NC(=O)COCCOCCNC1=O [n7OCha3fF] (Ac-C[AEEA][Cha][Phe(3-F)]; thioester 1-C) | 109 | 1380 | 35 | 597 |  |  |  |  |  |  |  |  |  | 
CC(=O)N[C@H]1CSC(=O)[C@H](Cc2ccccc2)NC(=O)[C@H](CC2CCCCC2)NC(=O)COCCOCCNC1=O [n7OChaF] (Ac-C[AEEA][Cha]F; thioester 1-C) | 998 | 790 | 205 | 1080 |  |  |  |  |  |  |  |  |  | 
CC(=O)N[C@H]1CSC(=O)[C@H](Cc2cccc(Cl)c2)NC(=O)[C@H](Cc2ccccc2)NC(=O)COCCOCCNC1=O [n7OF3clF] (Ac-C[AEEA]F[Phe(3-Cl)]; thioester 1-C) | 225 | 217 | 1140 |  |  |  |  |  |  |  |  |  |  | 
CC(=O)N[C@H]1CSC(=O)[C@H](Cc2cccc(F)c2)NC(=O)[C@H](Cc2ccccc2)NC(=O)COCCOCCNC1=O [n7OF3fF] (Ac-C[AEEA]F[Phe(3-F)]; thioester 1-C) | 40 | 1210 | 171 | > 5000 |  |  |  |  |  |  |  |  |  | 
CC(=O)N[C@H]1CSC(=O)[C@H](Cc2ccc(Cl)cc2)NC(=O)[C@H](Cc2ccccc2)NC(=O)COCCOCCNC1=O [n7OF4clF] (Ac-C[AEEA]F[Phe(4-Cl)]; thioester 1-C) | 2590 | 113 | 2480 | > 5000 |  |  |  |  |  |  |  |  |  | 
CC(=O)NC1CNC(=O)C(Cc2ccccc2)NC(=O)C(Cc2ccccc2)NC(=O)COCCOCCNC1=O (stereo not shown) [n7OFF amide] (Ac-[Dap][AEEA]FF; lactam 1-C; configuration not given here) |  |  |  |  | no significant activity | > 10000 | no significant activity | > 10000 | no significant activity | > 10000 | no significant activity | markedly more soluble in water than their parent thiolactones | > 10000 | 
CC(=O)N[C@H]1CSC(=O)[C@H](Cc2ccccc2)NC(=O)[C@H](Cc2ccccc2)NC(=O)COCCOCCNC1=O [n7OFF] (Ac-C[AEEA]FF; thioester 1-C) | 181 | 583 | 332 | 5940 | approximately as active as t-AIP-II, n7FF, and n8FF | 181 | approximately as active as t-AIP-II, n7FF, and n8FF | 583 | modestly active | 332 | modestly active |  | 5940 | more potent than n7FF ([1]; group-I): ~2 fold; more soluble in water than n7FF [5]: approximately 100 fold
CC(=O)N[C@H]1CNC(=O)[C@H](Cc2ccccc2)NC(=O)[C@H](Cc2ccccc2)NC(=O)CCCCCCCCNC1=O [n8FF amide] |  |  |  |  | far less active | 4740 | minimal levels | 1340 | minimal levels | 2610 | virtually no inhibition | markedly more soluble in water than their parent thiolactones |  | 
CC(=O)NC1CSC(=O)C(Cc2ccccc2)NC(=O)C(Cc2ccccc2)NC(=O)CCCCCCCCNC1=O (stereo not shown) [n8FF] |  |  |  |  |  | 468 |  | 479 |  | 125 |  | relatively low water solubilities; also recorded: less soluble than AIP-III D4A in water | 3490 | less potent than n7FF ([3]; group-III): 4 fold; less potent than n7FF ([4]; group-IV): 4 fold
